T1: PpERL1 (Physcomitrium patens ERECTA-like receptor 1) (Physcomitrium patens, UniProt A0A2K1L2N0)
T1 construct: gene LOC112274326; intracellular fragment 658-1018 (kinase domain with embedded GC motif 877-893) of 1018 residues; N-terminal GST tag kept (pGEX-6P-2), about 66 kDa; E. coli BL21(DE3)pLysS
T1 sequence (A0A2K1L2N0 658-1018): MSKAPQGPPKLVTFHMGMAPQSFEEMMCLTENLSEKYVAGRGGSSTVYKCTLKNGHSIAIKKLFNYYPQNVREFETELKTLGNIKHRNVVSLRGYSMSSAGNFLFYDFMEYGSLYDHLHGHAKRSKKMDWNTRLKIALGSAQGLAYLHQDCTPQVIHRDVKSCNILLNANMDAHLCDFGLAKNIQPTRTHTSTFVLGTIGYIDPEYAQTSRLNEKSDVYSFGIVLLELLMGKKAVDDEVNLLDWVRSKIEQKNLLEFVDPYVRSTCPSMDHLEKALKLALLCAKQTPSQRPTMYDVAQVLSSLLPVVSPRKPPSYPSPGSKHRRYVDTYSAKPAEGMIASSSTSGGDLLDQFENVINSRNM

B1: PpERL1 (Physcomitrium patens ERECTA-like receptor 1) (Physcomitrium patens) (protein)
chain: MSKAPQGPPKLVTFHMGMAPQSFEEMMCLTENLSEKYVAGRGGSSTVYKCTLKNGHSIAIKKLFNYYPQNVREFETELKTLGNIKHRNVVSLRGYSMSSAGNFLFYDFMEYGSLYDHLHGHAKRSKKMDWNTRLKIALGSAQGLAYLHQDCTPQVIHRDVKSCNILLNANMDAHLCDFGLAKNIQPTRTHTSTFVLGTIGYIDPEYAQTSRLNEKSDVYSFGIVLLELLMGKKAVDDEVNLLDWVRSKIEQKNLLEFVDPYVRSTCPSMDHLEKALKLALLCAKQTPSQRPTMYDVAQVLSSLLPVVSPRKPPSYPSPGSKHRRYVDTYSAKPAEGMIASSSTSGGDLLDQFENVINSRNM
notes: intracellular fragment 658-1018 (kinase domain with embedded GC motif 877-893) of 1018 residues; N-terminal GST tag kept (pGEX-6P-2), about 66 kDa; E. coli BL21(DE3)pLysS

How the values were obtained:
[1] = target: T2, PpERL1 (Physcomitrium patens ERECTA-like receptor 1) (Physcomitrium patens, UniProt A0A2K1L2N0, K890N); experiment: Kinase-Glo Plus luminescent kinase assay, histone type III; type: biochemical; settings: 10 μM ATP, 5 mM MgCl2, 1 mM DTT, Tris-HCl pH 7.5, 30 °C; inhibition of kinase domain, possibly via GC domain
T2 construct: gene LOC112274326; intracellular fragment 658-1018 (kinase domain with embedded GC motif 877-893) of 1018 residues; N-terminal GST tag kept (pGEX-6P-2), about 66 kDa; E. coli BL21(DE3)pLysS

[2] = target: T1, PpERL1 (Physcomitrium patens ERECTA-like receptor 1); experiment: as above; type: biochemical; settings: 10 μM ATP, 5 mM MgCl2, 1 mM DTT, Tris-HCl pH 7.5, 30 °C; inhibition of kinase domain, possibly via GC domain
[3] = substrate: Nc1nc2c(ncn2[C@@H]2O[C@H](COP(=O)(O)OP(=O)(O)OP(=O)(O)O)[C@@H](O)[C@H]2O)c(=O)[nH]1; experiment: guanylate cyclase assay, cGMP by LC-MS/MS; type: biochemical, Physcomitrium patens; settings: GTP 0.1-3 mM, 5 mM MgCl2, 2.5 mM MnCl2, 1 mM DTT, Tris-HCl pH 7.5, 30 °C, no CaCl2

T2 sequence (A0A2K1L2N0 entry or part of it K890N): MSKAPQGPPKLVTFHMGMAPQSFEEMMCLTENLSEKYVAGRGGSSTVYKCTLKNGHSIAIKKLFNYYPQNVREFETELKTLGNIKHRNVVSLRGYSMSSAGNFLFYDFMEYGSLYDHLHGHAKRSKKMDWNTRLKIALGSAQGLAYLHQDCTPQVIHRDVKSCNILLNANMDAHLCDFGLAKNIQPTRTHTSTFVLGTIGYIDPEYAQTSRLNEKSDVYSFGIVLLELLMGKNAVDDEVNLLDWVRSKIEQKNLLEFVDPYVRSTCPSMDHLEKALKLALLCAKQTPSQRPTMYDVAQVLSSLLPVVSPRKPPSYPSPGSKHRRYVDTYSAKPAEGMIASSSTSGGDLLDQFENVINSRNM

Molecule	relative kinase activity at 1 mM GTP [1]	relative kinase activity at 1 mM GTP [2]	Km [3]
Nc1nc2c(ncn2[C@@H]2O[C@H](COP(=O)(O)OP(=O)(O)OP(=O)(O)O)[C@@H](O)[C@H]2O)c(=O)[nH]1 [GTP]	the presence of GTP resulted in a slight decrease in kinase activity	adding GTP to the reaction mixture led to a significant decrease in kinase activity	
B1			609.8 µM

From publication PMC12185792, “Guanylate cyclase activity in moss: revisiting the role of ERECTA-like receptors” (Physiology and Molecular Biology of Plants, 2025)
